Reference: patent US10294230B2, “3,3-difluoropiperidine carbamate heterocyclic compounds as NR2B NMDA receptor antagonists” (Rugen Holdings (Cayman) Limited, priority 2015, dated 2019)

Experiments:
human NR1/NR2B = human NR1/NR2B (Homo sapiens (Human), UniProt Q05586+Q13224); assay: NR2B antagonist activity, Fluo-4 calcium influx in HEK293 cells; format: cell-based
Experimental: (§1) HEK293 cell lines stably expressing cloned human NR1/NR2B and NR1/NR2A, respectively, were established according to standard previously described methods (Hansen et al., Comb. Chem High Throughput Screen. 11:304, 2008). Activation of the NR2A or NR2B subtype of NMDA receptor with glutamate as an agonist and glycine co-agonist on these cells results in calcium influx, which can be monitored with fluorescent indicator Fluo-4.
(§2) For experiments, the cells were seeded onto poly-D-lysine-coated 96-well black plates with clear bottom (Corning) at a density of ˜50,000 cells/well. After overnight culture, the growth medium was removed from the wells and the cells were incubated at 37° C. for 60 min in Hanks buffer containing 4 μM fluo-4-AM (Invitrogen) and 0.1% bovine serum albumin (BSA). After dye-loading, the cells were washed three times with Hanks buffer and incubated for 10 min at room temperature with various concentrations of test compounds prepared in Hanks buffer with 0.1% BSA. The cell plates were placed onto FDSS pCell fluorescence reader (Hamamatsu). After 20 sec reading of background fluorescence, agonist glutamate at final 100 μM and co-agonist glycine at final 50 μM were added to the cells to activate the receptor, and the resulting fluorescence changes were recorded and quantified. Based on the changes in fluorescence intensity, the pharmacological effect of test compounds were analyzed and the IC50 values derived from a non-linear least squares fitting of the concentration-dependent response to a standard logistic equation using Prism (Graphpad, Inc): Amplitude=Max Amplitude/(1+(IC50/[antagonist])^n).

CYP2D6 = CYP2D6 (Homo sapiens (Human), UniProt P10635); assay: CYP P450 enzyme inhibition, pooled human liver microsome; format: in vitro ADME; conditions: 10 μM, pooled HLM, dextromethorphan 5 μM
Sequence of CYP2D6 (P10635 whole entry): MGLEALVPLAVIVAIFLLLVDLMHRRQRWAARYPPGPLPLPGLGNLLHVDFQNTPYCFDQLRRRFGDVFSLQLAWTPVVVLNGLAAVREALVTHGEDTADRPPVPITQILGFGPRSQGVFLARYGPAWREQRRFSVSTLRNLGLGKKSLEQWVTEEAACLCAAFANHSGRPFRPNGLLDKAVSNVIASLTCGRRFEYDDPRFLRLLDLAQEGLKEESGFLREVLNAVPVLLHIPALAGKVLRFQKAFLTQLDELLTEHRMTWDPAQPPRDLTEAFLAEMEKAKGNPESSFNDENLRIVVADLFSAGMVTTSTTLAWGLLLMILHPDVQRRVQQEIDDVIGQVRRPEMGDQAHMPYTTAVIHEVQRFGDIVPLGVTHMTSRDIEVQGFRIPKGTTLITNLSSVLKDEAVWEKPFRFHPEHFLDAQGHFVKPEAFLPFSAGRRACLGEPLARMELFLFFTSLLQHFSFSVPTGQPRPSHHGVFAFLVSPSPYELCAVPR

human NR1/NR2A = human NR1/NR2A (Homo sapiens (Human), UniProt Q05586+Q12879); assay: NR2A antagonist activity, Fluo-4 calcium influx in HEK293 cells; format: cell-based; conditions: Table 2.1, glutamate 100 μM, glycine 50 μM
Sequence of human NR1/NR2A (Q12879 23-1464, other chains not shown): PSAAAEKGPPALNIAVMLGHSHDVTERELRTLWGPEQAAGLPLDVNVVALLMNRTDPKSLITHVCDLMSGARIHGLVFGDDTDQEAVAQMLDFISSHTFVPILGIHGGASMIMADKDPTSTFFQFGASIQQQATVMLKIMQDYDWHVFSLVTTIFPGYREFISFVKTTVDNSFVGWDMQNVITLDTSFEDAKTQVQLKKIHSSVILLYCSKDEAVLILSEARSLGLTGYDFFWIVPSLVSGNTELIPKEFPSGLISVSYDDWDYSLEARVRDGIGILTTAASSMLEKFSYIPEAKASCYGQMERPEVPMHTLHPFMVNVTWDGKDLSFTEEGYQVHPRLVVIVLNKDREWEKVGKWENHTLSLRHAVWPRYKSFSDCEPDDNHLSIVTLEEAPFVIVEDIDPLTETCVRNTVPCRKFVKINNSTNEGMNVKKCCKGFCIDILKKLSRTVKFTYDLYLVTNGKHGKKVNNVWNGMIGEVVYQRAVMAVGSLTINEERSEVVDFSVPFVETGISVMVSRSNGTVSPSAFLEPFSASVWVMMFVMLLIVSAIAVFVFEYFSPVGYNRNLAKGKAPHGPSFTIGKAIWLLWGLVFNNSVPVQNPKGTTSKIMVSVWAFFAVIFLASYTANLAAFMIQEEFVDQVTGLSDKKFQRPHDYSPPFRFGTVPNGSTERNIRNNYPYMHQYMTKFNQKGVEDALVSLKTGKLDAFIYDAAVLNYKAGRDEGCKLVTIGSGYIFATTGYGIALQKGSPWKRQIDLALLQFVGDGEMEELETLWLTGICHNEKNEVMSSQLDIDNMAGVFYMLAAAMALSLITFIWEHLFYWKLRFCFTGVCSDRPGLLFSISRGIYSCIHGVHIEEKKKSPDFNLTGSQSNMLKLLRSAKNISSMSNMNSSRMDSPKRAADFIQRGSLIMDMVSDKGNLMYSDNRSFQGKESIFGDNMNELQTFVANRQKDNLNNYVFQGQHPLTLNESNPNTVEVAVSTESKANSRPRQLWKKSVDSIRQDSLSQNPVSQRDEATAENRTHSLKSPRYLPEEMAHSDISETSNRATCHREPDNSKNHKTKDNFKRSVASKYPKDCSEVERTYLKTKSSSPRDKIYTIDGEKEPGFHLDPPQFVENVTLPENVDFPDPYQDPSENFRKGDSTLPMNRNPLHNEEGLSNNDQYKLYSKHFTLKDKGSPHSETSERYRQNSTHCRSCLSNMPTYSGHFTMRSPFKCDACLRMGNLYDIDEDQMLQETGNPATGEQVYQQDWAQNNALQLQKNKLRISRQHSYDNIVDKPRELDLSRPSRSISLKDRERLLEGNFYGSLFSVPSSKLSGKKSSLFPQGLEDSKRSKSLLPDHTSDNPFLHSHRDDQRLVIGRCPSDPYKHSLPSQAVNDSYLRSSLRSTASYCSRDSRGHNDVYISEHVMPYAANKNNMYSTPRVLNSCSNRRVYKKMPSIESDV
Experimental: as §1, §2

NR2B receptor = NR2B receptor (Rattus norvegicus (Rat), UniProt P35439+Q00960); assay: [3H] (E)-N1-(2-methoxybenzyl)-cinnamidine radioligand binding, rat brain membranes; conditions: for displacement of [3H] (E)-N1-(2-methoxybenzyl)-cinnamidine at the NR2B receptor high affinity site: rat brain membranes; for Ki: read-out: Ki at the NR2B receptor high affinity site
Sequence of NR2B receptor (Q00960 27-1482, other chains not shown): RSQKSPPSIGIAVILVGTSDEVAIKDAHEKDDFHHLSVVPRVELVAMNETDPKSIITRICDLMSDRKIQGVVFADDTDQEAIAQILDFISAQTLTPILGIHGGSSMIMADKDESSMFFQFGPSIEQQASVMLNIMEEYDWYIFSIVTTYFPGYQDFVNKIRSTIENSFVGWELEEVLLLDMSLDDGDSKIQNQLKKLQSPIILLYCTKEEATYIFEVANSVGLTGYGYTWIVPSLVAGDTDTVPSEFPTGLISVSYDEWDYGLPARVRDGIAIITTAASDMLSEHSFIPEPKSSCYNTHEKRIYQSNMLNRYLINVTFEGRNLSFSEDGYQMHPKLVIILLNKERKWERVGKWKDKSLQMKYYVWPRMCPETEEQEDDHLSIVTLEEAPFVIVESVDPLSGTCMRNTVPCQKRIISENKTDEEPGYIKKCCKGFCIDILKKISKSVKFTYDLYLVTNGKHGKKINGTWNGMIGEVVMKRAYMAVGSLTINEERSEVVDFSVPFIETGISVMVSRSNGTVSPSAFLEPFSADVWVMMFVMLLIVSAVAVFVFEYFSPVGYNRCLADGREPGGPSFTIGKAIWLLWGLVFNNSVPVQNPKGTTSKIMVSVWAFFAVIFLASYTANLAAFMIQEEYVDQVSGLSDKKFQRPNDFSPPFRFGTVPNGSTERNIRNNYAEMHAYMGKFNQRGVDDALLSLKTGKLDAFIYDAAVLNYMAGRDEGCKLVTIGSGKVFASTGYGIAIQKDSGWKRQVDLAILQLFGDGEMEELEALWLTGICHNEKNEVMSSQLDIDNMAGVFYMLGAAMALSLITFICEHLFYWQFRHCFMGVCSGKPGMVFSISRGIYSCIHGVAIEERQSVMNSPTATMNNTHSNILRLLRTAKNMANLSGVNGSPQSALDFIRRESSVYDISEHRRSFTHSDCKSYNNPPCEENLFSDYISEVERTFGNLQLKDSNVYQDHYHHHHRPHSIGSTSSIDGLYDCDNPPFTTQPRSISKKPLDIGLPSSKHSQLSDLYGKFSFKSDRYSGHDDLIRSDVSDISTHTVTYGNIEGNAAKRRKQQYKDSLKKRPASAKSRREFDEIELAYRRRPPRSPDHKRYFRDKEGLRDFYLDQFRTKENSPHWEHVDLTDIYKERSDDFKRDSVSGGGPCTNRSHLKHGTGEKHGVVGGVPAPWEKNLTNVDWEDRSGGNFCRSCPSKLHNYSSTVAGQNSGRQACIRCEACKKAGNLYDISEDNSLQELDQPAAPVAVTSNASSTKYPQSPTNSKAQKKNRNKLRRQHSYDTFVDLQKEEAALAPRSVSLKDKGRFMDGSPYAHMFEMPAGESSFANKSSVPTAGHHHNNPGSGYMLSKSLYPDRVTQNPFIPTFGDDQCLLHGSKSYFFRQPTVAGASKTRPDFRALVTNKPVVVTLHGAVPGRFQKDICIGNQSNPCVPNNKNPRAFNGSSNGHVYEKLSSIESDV
Experimental: (§3) This example describes NMDA receptor binding assays using two different radioligands, [^3H] […] An established binding assay using the non-selective NMDA receptor ligand [^3H] […] The binding assay method using the NR2B selective receptor ligand [^3H] […] This assay serves as a selective measure of NR2B receptor binding activity in native rat brain receptors. Briefly, the brains of Male Wistar rats were homogenized (Polytron) before centrifugation at 40,000×g for 15 minutes at 4° C. After 2 washes, the final pellet was homogenized and stored at −80° C. The protein concentration was determined by Bradford assay.
[^3H] […] Thus, using [^3H]
(§4) Test compounds were solubilized at 10 mM in DMSO. Then the dilutions were performed with a constant solvent concentration (1% DMSO) in the assay.
(§5) After incubation for 4.5 h at room temperature, the assays were filtered on GF/B filters pretreated with 0.3% (v/v) PEI with a Brandel system for [^3H] […] The experiment was performed in duplicate (n=2).

NMDA receptor = assay: [3H] MK-801 radioligand binding, rat brain membranes; conditions: 2 nM [3H] MK-801
Experimental: as §3, §4, §5

hERG channel = hERG channel (Homo sapiens (Human), UniProt Q12809); assay: hERG channel inhibition, whole cell patch clamp in HEK293 cells; format: cell-based; conditions: 10 μM
[1] = tested on: pentylenetetrazole (PTZ) induced convulsions; assay: Pentylenetetrazole (PTZ) Seizure Test; format: in vivo; conditions: 10 mg/kg p.o., mesylate salt
Experimental: Rats, placed in individual macrolon cages (25×19×13 cm), were injected with pentylenetetrazole (PTZ) (100 mg/kg s.c.). The occurrence and latency of clonic and tonic convulsions and death were noted over a 30 minute period. 15 rats were studied per group. The test was performed blind. […]
Compounds were evaluated typically using 0.5% dimethylsulfoxide, 4% hydroxypropyl-b-cyclodextrin water as a vehicle at 1 or more doses (e.g., 1, 3 and 10 mg/kg), administered p.o. 30 minutes before PTZ, and compared with a vehicle control group. Diazepam (16 mg/kg p.o.), administered 60 minutes before PTZ, was used as reference substance. The experiment was performed over 2 separate sub-experiments with N=7 to 8 animals per group and per sub-experiment. Quantitative data (latencies) with the test substance was analyzed by comparing treated groups with vehicle control using Kruskal-Wallis test followed by Mann-Whitney U test. Quantitative data with the reference substance was analyzed using Mann-Whitney U test. Quantal data (frequencies) was analyzed by comparing treated groups with vehicle control using Fisher's Exact Probability tests (*=p<0.05; **=p<0.01; ***=p<0.001).

[2] = tested on: electroconvulsive threshold (tonic convulsions); assay: Electroconvulsive Threshold Test (ECT); format: in vivo, rats; conditions: rats, 3 and 10 mpk p.o., mesylate salt
Experimental: Test compound E1-8.2 was administered as the free base.
Rats were administered ECS (rectangular current: 0.6 ms pulse width, 1.5 s duration, 200 Hz) via earclip electrodes connected to a constant current shock generator (Ugo Basile: type 7801). Test compounds were administered by oral gavage (p.o.) 1 hour before the test at a dose volume of 5 mL/kg.
Treatment groups of 20 rats were exposed to ECS as follows: The first animal was exposed to 30 mA of ECS. […] (increases of 5 mA) until the first tonic convulsion was observed. Once the first tonic convulsion was observed, the intensity of ECS was decreased by 2 mA for the next animal and then decreased or increased by 2 mA from animal to animal depending on whether the previous animal convulsed or not. If the first animal did convulse (tonic convulsions) within 5 seconds, animal no2 is exposed to 25 mA, etc. . . . (decreases of 5 mA) until the absence of tonic convulsions was observed. At this point, the intensity of ECS was increased by 2 mA for the next animal and then decreased or increased by 2 mA from animal to animal depending on whether the previous animal convulsed or not. The minimum current intensity applied is 5 mA and the maximum 95 mA. The first 5 animals serve to approach threshold current and were not included in the analysis. The results are presented as the mean current intensity administered to the final 15 animals of a group. The test was performed blind. A positive percent change indicates an anticonvulsant effect. A negative percent change indicates a proconvulsant effect. The test substance was evaluated at 4 doses, typically using 0.5% dimethylsulfoxide, 4% hydroxypropyl-b-cyclodextrin water as a vehicle, and administered p.o. 60 minutes before ECS, and compared with a vehicle control group. Diazepam (16 mg/kg p.o.), administered under the same experimental conditions, was used as reference substance. The experiment included 6 groups. Data with the test substance was analyzed by comparing treated groups with vehicle control using one-way ANOVA followed by Dunnett's t tests.

[3] = tested on: haloperidol-induced catalepsy; assay: Haloperidol-Induced Catalepsy (HIC) Model; format: in vivo; conditions: rats
From the text: The Haloperidol-induced Catalepsy (HIC) model detects antipsychotic activity and the action of NR2B selective antagonists (Steece-Collier et al. Exp. Neurol. 163: 239, 2000) and was based on methods described by Chermat and Simon (J. Pharmacol., 6, 493-496, 1975). The capacity to induce catalepsy serves as an index of the liability of a test substance to induce extrapyramidal side-effects, in particular Parkinsonism. Antagonism of antipsychotic-induced catalepsy can thus serve to detect anti-Parkinson potential.
Rats were injected with haloperidol (1 mg/kg i.p.) and were examined for catalepsy at 30 minute intervals up to 360 minutes. Presence (+) or absence (−) of catalepsy was assessed by three procedures: 1) imposed crossing of the ipsilateral fore- and hind-limbs; 2) placing the animal in the Buddha position; 3) the tilting board, an automatic device that, 5 seconds after positioning the rat, displaces the rat from a horizontal to vertical position and back while it clings to a wire grid with its front paws. Akinesia and catalepsy were assessed depending on whether or not the animal moves before (akinesia) or during operation of the board (catalepsy).
The 4 scores were cumulated over time to give a global catalepsy score per animal. Six rats were studied per group. The test was performed blind (test substances versus vehicle). Test substances were evaluated at 1 or more doses, administered typically using 0.5% dimethylsulfoxide, 4% hydroxypropyl-b-cyclodextrin water as a vehicle p.o. 15 minutes before haloperidol (i.e. 45 minutes before the first measurement), and compared with a vehicle control group.
Amphetamine (8 mg/kg p.o.), administered 60 minutes before the test (i.e. 90 minutes before the first measurement), was used as reference substance. Data with the test substances were analyzed by comparing treated groups with vehicle control using Kruskal-Wallis Test followed by Mann-Whitney U tests at each time and for cumulated score. Data with the reference substance were analyzed using Mann-Whitney U tests.

[4] = Table 2.1, HEK293 human NR1/NR2B, glutamate 100 μM, glycine 50 μM

Sequence of human NR1/NR2B (Q13224 27-1484, other chains not shown): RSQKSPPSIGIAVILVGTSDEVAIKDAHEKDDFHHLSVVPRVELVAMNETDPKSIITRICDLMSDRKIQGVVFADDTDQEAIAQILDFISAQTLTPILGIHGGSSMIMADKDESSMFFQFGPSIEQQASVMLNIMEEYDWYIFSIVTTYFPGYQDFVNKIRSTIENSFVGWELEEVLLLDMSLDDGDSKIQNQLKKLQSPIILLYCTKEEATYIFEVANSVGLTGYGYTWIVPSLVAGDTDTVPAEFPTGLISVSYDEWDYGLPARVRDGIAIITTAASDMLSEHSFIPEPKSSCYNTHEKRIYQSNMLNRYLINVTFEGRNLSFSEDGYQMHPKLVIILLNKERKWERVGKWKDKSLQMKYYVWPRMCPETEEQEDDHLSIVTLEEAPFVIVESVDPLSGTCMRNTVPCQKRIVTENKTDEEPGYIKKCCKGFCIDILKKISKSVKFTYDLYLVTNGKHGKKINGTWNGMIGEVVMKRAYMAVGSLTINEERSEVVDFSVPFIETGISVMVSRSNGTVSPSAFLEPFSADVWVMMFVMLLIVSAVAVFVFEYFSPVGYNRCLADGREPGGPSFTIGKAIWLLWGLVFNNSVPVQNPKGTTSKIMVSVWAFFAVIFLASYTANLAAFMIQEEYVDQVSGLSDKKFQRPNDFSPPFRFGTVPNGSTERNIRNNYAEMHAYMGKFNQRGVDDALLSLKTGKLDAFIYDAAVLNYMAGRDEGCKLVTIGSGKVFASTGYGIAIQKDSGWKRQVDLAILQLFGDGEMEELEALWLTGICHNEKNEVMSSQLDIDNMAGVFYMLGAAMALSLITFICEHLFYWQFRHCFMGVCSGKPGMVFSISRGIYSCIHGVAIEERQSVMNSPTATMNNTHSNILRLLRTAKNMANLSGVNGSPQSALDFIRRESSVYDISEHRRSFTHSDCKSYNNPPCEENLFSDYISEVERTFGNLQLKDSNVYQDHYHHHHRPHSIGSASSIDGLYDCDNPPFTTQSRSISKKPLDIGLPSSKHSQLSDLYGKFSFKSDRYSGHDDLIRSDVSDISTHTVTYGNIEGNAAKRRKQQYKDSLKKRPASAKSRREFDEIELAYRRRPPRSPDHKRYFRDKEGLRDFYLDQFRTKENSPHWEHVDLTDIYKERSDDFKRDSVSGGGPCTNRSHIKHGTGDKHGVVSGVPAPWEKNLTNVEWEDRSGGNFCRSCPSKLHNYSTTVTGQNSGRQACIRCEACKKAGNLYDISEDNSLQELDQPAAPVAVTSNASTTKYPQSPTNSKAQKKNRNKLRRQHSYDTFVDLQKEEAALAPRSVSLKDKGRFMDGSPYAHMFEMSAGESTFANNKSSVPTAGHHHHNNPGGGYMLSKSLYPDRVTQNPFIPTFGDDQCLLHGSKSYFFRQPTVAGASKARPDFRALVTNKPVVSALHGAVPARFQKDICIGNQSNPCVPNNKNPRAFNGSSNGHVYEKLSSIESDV

Row | IC50 (human NR1/NR2B; [4]) [µM] | IC50 (human NR1/NR2B; Table 2.2) [µM] | IC50 (human NR1/NR2B; Table 2.3) [µM] | CYP2D6 @ 10 μM (%) (CYP2D6) | IC50 (human NR1/NR2A) [µM] | displacement of [3H] (E)-N1-(2-methoxybenzyl)-cinnamidine at the NR2B receptor high affinity site (NR2B receptor) [%] | Ki (NR2B receptor) [µM] | partial effect on [3H] MK-801 binding (NMDA receptor) [%] | SMILES | hERG @ 10 μM (%) (hERG channel) | number of rats showing tonic convulsions, change vs vehicle controls [1] [%] | latency to clonic convulsions, change vs vehicle controls ([1]; rats) | latency to death, change vs vehicle controls ([1]; rats) | latency to tonic convulsions, change vs vehicle controls ([1]; rats) | number of deaths, change vs vehicle controls ([1]; rats) [%] | electroconvulsive threshold, pro-/anticonvulsant activity [2] | cumulated score of catalepsy over 360 mins ([3]; 3 mg/kg p.o.) | cumulated score of catalepsy over 360 mins ([3]; 10 mg/kg p.o.)
1 | 0.0148 | 0.0148 | 0.0148 | 37 | > 10 | 97 | 0.00234 | 41 | O=C(OCc1ccc(Cl)cc1)N1CC[C@H](CNc2nccn3cnnc23)C(F)(F)C1 [Compound E1-1.3, R-4-chlorobenzyl 4-(([1,2,4]triazolo[4,3-a]pyrazin-8-ylamino)methyl)-3,3-difluoropiperidine-1-carboxylate] | 19 | – | – | – | – | – | – | – | –
2 | 0.0205 | 0.0205 | 0.0205 | 19 | > 10 | 98 | 0.0182 | 32 | O=C(OCc1ccc(F)cc1)N1CC[C@H](CNc2nccn3cnnc23)C(F)(F)C1 [Compound E1-1.4, R-4-fluorobenzyl 4-(([1,2,4]triazolo[4,3-a]pyrazin-8-ylamino)methyl)-3,3-difluoropiperidine-1-carboxylate] | 11 | – | – | – | – | – | – | – | –
3 | 0.0144 | 0.0144 | 0.0144 | 97 | > 10 | 98 | – | 49 | Cc1ccc(COC(=O)N2CC[C@H](CNc3cnccn3)C(F)(F)C2)cc1 [Compound E1-21.2, R-4-methylbenzyl 3,3-difluoro-4-((pyrazin-2-ylamino)methyl)piperidine-1-carboxylate] | 27 | – | – | – | – | – | – | – | –

Row | SMILES | IC50 (human NR1/NR2B; [4]) [µM] | IC50 (human NR1/NR2B; Table 2.2) [µM] | IC50 (human NR1/NR2B; Table 2.3) [µM] | CYP2D6 @ 10 μM (%) (CYP2D6) | IC50 (human NR1/NR2A) [µM] | displacement of [3H] (E)-N1-(2-methoxybenzyl)-cinnamidine at the NR2B receptor high affinity site (NR2B receptor) [%] | Ki (NR2B receptor) [µM] | partial effect on [3H] MK-801 binding (NMDA receptor) [%] | hERG @ 10 μM (%) (hERG channel) | number of rats showing tonic convulsions, change vs vehicle controls [1] [%] | latency to clonic convulsions, change vs vehicle controls ([1]; rats) | latency to death, change vs vehicle controls ([1]; rats) | latency to tonic convulsions, change vs vehicle controls ([1]; rats) | number of deaths, change vs vehicle controls ([1]; rats) [%] | electroconvulsive threshold, pro-/anticonvulsant activity [2] | cumulated score of catalepsy over 360 mins ([3]; 3 mg/kg p.o.) | cumulated score of catalepsy over 360 mins ([3]; 10 mg/kg p.o.)
4 | Cc1ccc(COC(=O)N2CC[C@H](CNc3cnc(C)cn3)C(F)(F)C2)cc1 [Compound E1-21.26, R-4-methylbenzyl 3,3-difluoro-4-((5-methylpyrazin-2-ylamino)-methyl)piperidine-1-carboxylate] | 0.0387 | 0.0387 | 0.0387 | 32 | > 10 | 99 | – | 41 | 39 | −82 | +45% | +31% | +40% | −82 | anticonvulsant activity | 11.7 | 1.0
